Patent US9302999B2, “Substituted triazoles as herbicides” (E. I. DU PONT DE NEMOURS AND COMPANY, priority 2012, dated 2016)

Legend:
Assay type in all cases: in vivo
Details in all cases: Preemergence
[1] = tested on: dayflower, VA (Virginia (VA) dayflower, Commelina virginica); assay: Test F pre-/postemergence: dayflower, VA
Excerpt: (§1) Seeds of plant species selected from corn (Zea mays), soybean (Glycine max), velvetleaf (Abutilon theophrasti), lambsquarters (Chenopodium album), poinsettia, wild (wild poinsettia, Euphorbia heterophylla), pigweed, palmer (palmer pigweed, Amaranthus palmeri), waterhemp (common waterhemp, Amaranthus rudis), surinam grass (Brachiaria decumbens), crabgrass, Brazil (Brazilian crabgrass, Digitaria horizontalis), panicum, fall (fall panicum Panicum dichotomiflorum), crabgrass, large (large crabgrass, Digitaria sanguinalis), foxtail, giant (giant foxtail, Setaria faberii), foxtail, green (green foxtail Setaria viridis), goosegrass (Eleusine indica), ragweed (common ragweed, Ambrosia elatior), barnyardgrass (Echinochloa crus-galli), sandbur (southern sandbur, Cenchrus echinatus), arrowleaf sida (Sida rhombifolia), ryegrass, Italian (Italian ryegrass, Lolium multiflorum), dayflower, VA (Virginia (VA) dayflower, Commelina virginica), field bindweed (Convolvulus arvensis), cocklebur (common cocklebur, Xanthium strumarium), morningglory (Ipomoea coccinea), nightshade (eastern black nightshade, Solanum ptycanthum), kochia (Kochia scoparia), nutsedge, yellow (yellow nutsedge, Cyperus esculentus), johnsongrass (Sorghum halepense), smartweed (ladysthumb smartweed, Polygonum persicaria), and beggarticks (hairy beggarticks, Bidens pilosa), were planted into a silt loam soil and treated preemergence with test chemicals formulated in a non-phytotoxic solvent mixture which included a surfactant. At the same time, plants selected from these crop and weed species and also pigweed (Amaranthus retroflexus), waterhemp_RES1 (ALS/Triazine resistant common waterhemp, Amaranthus rudis) and waterhemp_RES2 (ALS/HPPD resistant common waterhemp, Amaranthus rudis) were planted in pots containing a planting medium comprising spaghnum peat moss, vermiculite, wetting agent and starter nutrients treated with postemergence applications of some of the test chemicals formulated in the same manner. Plants ranged in height from 2 to 18 cm for postemergence treatments (1- to 4-leaf stage).
(§2) Treated plants and controls were maintained in a greenhouse for 14 to 21 days, after which time all species were compared to controls and visually evaluated. Plant response ratings, summarized in Table E, are based on a scale of 0 to 100 where 0 is no effect and 100 is complete control. A dash (-) response means no test result.

[2] = tested on: barnyardgrass (Echinochloa crus-galli); assay: Test F pre-/postemergence: barnyardgrass
Excerpt: as §1, §2

[3] = tested on: lambsquarters (Chenopodium album); assay: Test F pre-/postemergence: lambsquarters
Excerpt: as §1, §2

[4] = tested on: field bindweed (Convolvulus arvensis); assay: Test F pre-/postemergence: field bindweed
Excerpt: as §1, §2

[5] = tested on: pigweed, palmer (palmer pigweed, Amaranthus palmeri); assay: Test F pre-/postemergence: pigweed, palmer
Excerpt: as §1, §2

[6] = 16 g ai/ha, scale 0 to 100, 0 no effect, 100 complete control
[7] = 31 g ai/ha, scale 0 to 100, 0 no effect, 100 complete control

Row | SMILES | Plant response rating, Dayflower, VA [1, 6] | Plant response rating, Dayflower, VA [1, 7] | Plant response rating, Dayflower, VA ([1]; 62 g ai/ha, scale 0 to 100) | Plant response rating, Dayflower, VA ([1]; 125 g ai/ha, scale 0 to 100) | Plant response rating, Dayflower, VA ([1]; 250 g ai/ha, scale 0 to 100) | Plant response rating, Barnyardgrass [2, 6] | Plant response rating, Barnyardgrass [2, 7] | Plant response rating, Barnyardgrass ([2]; 62 g ai/ha, scale 0 to 100) | Plant response rating, Barnyardgrass ([2]; 125 g ai/ha, scale 0 to 100) | Plant response rating, Barnyardgrass ([2]; 250 g ai/ha, scale 0 to 100) | Plant response rating, Lambsquarters [3, 6] | Plant response rating, Lambsquarters [3, 7] | Plant response rating, Lambsquarters ([3]; 62 g ai/ha, scale 0 to 100) | Plant response rating, Lambsquarters ([3]; 125 g ai/ha, scale 0 to 100) | Plant response rating, Lambsquarters ([3]; 250 g ai/ha, scale 0 to 100) | Plant response rating, Field Bindweed [4, 6] | Plant response rating, Field Bindweed [4, 7] | Plant response rating, Field Bindweed ([4]; 62 g ai/ha, scale 0 to 100) | Plant response rating, Field Bindweed ([4]; 125 g ai/ha, scale 0 to 100) | Plant response rating, Field Bindweed ([4]; 250 g ai/ha, scale 0 to 100) | also measured
1 | COc1nn(-c2cccc(F)c2)nc1Cc1ccnc(C(F)(F)F)c1 [Compound 139] | 0 | 5 | 30 | 60 | 65 | 0 | 10 | 10 | 10 | 98 | 0 | 20 | 65 | 90 | 98 | 0 | 0 | 0 | 0 | 20 | –
2 | Cc1nn(-c2ccc(F)cc2F)nc1Oc1ccnc(C(F)(F)F)c1 [Compound 146] | 0 | 0 | 10 | 35 | 35 | 0 | 0 | 10 | 10 | 20 | 0 | 0 | 40 | 98 | 98 | 0 | 0 | 0 | 0 | 25 | Plant response rating, Pigweed, Palmer [5, 6]: 85; Plant response rating, Pigweed, Palmer [5, 7]: 100; Plant response rating, Pigweed, Palmer ([5]; 125 g ai/ha, scale 0 to 100): 100; Plant response rating, Pigweed, Palmer ([5]; 250 g ai/ha, scale 0 to 100): 100
3 | CCc1nn(-c2ccc(F)c(F)c2)nc1Oc1ccnc(C(F)(F)F)c1 [Compound 171] | 0 | 0 | 0 | 30 | 30 | 0 | 5 | 5 | 80 | 100 | 0 | 0 | 35 | 65 | 98 | 0 | 0 | 0 | 5 | 5 | Plant response rating, Pigweed, Palmer [5, 6]: 0; Plant response rating, Pigweed, Palmer [5, 7]: 0; Plant response rating, Pigweed, Palmer ([5]; 125 g ai/ha, scale 0 to 100): 100; Plant response rating, Pigweed, Palmer ([5]; 250 g ai/ha, scale 0 to 100): 100
